Measured values as given in ChEMBL document CHEMBL5465560, “Selectivity Literature for EUbOPEN Chemogenomic Library” (2024).

What was measured:
[1] = tested on: Dual specificity mitogen-activated protein kinase kinase 6 (Homo sapiens), P52564 [S207E,T211E]; test: (§1) Selectivity interaction (LanthaScreen Eu Kinase Binding Assay) EUB0001632a MAP2K6; settings: at 10 µM
[2] = target: T1, Dual specificity mitogen-activated protein kinase kinase 6 (Homo sapiens) (UniProt P52564); test: as §1; settings: at 10 µM
T1 sequence (whole entry): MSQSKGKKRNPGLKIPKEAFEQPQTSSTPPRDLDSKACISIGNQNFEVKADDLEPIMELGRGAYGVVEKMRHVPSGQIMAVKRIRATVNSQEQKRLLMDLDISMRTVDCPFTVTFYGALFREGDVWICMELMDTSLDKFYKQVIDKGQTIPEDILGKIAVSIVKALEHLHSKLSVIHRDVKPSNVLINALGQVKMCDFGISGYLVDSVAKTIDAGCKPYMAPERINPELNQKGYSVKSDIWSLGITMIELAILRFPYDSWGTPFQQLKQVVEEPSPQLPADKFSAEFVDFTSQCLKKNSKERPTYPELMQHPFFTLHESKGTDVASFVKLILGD

[3] = target: Serine/threonine-protein kinase PLK1 (Homo sapiens, UniProt P53350); test: Selectivity interaction (SelectScreen profiling (Invitrogen)) EUB0000607a PLK1; settings: at 2 µM
Sequence of Serine/threonine-protein kinase PLK1 (P53350 whole entry): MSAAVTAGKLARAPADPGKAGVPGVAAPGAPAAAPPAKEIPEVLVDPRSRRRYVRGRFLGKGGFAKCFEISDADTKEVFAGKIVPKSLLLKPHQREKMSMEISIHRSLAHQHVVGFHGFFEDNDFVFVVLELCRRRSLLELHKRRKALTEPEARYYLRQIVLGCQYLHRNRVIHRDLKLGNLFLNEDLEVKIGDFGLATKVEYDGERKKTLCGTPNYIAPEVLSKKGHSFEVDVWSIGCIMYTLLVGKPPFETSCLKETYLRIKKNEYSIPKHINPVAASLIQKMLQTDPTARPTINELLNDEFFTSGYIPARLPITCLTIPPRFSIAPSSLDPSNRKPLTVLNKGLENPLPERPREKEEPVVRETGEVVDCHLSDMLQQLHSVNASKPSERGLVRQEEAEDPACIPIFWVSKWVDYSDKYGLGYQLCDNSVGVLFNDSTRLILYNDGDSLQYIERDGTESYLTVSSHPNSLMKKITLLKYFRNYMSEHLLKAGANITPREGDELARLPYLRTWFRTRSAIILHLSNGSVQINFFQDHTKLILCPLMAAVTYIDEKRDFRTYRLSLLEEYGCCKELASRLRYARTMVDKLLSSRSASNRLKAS

[4] = target: Sodium-dependent dopamine transporter (Homo sapiens, UniProt Q01959); test: Selectivity interaction (Panel of non-epigenetic targets (kinases, GPCRs, ion channels, and transporters, Eurofins) ) EUB0000271b SLC6A3; settings: at 1 µM
Sequence of Sodium-dependent dopamine transporter (Q01959 whole entry): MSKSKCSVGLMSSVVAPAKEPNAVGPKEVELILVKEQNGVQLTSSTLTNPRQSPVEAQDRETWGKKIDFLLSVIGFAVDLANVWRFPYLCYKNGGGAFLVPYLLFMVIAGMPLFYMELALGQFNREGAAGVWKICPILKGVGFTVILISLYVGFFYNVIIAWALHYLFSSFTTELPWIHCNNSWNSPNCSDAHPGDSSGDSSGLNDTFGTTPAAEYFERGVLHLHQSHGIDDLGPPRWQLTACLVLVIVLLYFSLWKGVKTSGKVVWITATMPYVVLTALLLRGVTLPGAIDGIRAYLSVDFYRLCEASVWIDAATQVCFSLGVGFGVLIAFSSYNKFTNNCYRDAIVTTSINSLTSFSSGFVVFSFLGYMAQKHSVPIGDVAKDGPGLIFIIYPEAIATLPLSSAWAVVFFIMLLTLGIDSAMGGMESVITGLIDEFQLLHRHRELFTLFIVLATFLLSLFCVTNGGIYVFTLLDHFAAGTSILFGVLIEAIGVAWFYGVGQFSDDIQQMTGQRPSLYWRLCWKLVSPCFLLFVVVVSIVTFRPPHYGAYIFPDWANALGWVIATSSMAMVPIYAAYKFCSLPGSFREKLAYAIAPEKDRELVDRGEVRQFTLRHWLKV

[5] = target: T2, Serine/threonine-protein kinase TAO2 (Homo sapiens) (UniProt Q9UL54); test: Selectivity interaction (KinomeScan (DiscoverX)) EUB0000695a TAOK2; settings: at 100 nM
T2 sequence (whole entry): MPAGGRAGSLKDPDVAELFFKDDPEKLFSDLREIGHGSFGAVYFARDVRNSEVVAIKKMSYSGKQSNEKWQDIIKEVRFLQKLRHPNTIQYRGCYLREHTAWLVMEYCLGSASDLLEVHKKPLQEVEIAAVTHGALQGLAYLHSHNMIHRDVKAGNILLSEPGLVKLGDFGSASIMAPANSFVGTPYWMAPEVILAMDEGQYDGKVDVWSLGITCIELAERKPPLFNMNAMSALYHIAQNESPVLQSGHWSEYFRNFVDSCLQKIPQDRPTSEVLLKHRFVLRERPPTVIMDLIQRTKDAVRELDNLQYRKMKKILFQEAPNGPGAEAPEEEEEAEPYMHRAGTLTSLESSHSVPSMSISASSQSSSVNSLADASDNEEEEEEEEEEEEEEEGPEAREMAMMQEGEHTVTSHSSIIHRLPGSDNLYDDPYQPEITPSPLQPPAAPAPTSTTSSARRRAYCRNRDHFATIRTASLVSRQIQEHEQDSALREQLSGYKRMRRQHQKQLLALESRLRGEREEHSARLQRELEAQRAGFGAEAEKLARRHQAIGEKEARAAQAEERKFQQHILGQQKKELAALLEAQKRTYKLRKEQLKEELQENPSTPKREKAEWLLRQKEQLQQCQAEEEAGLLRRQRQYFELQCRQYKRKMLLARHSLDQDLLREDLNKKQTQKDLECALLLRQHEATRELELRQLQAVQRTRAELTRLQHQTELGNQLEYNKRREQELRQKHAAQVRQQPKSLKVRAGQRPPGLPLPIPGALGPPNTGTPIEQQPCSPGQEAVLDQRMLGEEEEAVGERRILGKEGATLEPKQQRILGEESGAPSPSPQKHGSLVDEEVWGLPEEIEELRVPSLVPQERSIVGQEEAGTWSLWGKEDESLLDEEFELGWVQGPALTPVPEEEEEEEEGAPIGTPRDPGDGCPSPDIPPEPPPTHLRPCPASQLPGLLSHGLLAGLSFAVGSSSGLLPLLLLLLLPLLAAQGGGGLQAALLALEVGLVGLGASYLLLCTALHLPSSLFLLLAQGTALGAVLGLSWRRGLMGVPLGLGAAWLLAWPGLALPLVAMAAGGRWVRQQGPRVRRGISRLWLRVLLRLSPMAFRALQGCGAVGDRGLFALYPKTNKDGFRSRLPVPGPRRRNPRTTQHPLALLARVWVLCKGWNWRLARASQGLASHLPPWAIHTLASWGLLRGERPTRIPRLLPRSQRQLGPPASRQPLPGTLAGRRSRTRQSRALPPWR

[6] = target: T3, Serine/threonine-protein kinase D1 (Homo sapiens) (UniProt Q15139); test: Selectivity interaction (KinomeScan (DiscoverX)) EUB0001619a PRKD1; settings: at 1 µM
T3 sequence (whole entry): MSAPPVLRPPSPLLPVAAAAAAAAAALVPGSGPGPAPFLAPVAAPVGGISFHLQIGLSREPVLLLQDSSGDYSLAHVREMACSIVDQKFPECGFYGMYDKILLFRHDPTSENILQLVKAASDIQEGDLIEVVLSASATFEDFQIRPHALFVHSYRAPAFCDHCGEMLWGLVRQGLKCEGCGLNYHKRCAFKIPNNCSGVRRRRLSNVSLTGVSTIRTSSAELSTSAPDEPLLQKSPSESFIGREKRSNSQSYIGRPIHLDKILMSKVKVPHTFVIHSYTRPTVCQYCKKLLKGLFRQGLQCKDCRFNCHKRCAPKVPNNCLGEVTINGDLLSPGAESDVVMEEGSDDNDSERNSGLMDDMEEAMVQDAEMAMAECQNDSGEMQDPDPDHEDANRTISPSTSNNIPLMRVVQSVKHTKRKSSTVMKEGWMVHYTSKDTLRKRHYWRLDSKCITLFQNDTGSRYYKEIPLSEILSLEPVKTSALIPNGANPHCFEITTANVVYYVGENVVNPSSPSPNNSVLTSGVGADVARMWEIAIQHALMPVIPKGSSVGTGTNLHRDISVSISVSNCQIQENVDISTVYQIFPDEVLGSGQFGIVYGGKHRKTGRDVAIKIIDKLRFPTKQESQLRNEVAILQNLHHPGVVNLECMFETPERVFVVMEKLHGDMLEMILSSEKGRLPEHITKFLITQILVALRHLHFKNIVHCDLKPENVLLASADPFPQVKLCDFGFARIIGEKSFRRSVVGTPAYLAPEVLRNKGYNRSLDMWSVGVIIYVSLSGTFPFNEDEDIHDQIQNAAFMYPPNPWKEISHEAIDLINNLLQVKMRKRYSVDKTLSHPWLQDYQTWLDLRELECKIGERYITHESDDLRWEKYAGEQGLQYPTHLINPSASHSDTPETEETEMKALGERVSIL

Sequence of Dual specificity mitogen-activated protein kinase kinase 6 (Homo sapiens), P52564 [S207E,T211E] (P52564 whole entry S207E/T211E): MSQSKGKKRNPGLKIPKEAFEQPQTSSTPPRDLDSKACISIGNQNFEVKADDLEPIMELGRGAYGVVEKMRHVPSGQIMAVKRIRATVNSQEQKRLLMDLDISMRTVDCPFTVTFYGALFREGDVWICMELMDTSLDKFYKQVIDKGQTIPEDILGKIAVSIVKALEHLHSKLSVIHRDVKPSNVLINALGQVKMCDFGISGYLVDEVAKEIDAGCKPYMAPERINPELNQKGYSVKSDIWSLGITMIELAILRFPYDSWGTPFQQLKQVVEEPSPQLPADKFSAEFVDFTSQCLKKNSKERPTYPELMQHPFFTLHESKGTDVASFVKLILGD

Q: With `Cn1cc(-n2cnc3c(NCc4nc5cc(Cl)c(Cl)cc5[nH]4)nc(N4CCOCC4)nc32)cn1` as the molecule, how does the % of inhibition [1] read?
A: -8.6%

Q: What about the % of inhibition [2] of the same molecule?
A: -35%

Q: For `CNC(=O)Nc1ccc(-c2nc(N3CC4CCC(C3)O4)c3cnn(C4CCC5(CC4)OCCO5)c3n2)cc1`, which % of inhibition [3] is on record?
A: -4%

Q: Which % of inhibition [4] does the source give for `Cc1cc(C)cc([C@@H]2c3cc(C)ccc3NC(=O)CN2C(=O)c2ccc(Br)s2)c1` here?
A: 6%

Q: For `Cc1cc(F)c(C(=O)Nc2cccc(-c3nncn3C(C)C)n2)cc1-n1cnc(C2CC2)c1`, which % of control [5] is on record?
A: 100%

Q: Which % of control [6] does the source give for `N#Cc1cccc(-c2c[nH]c3ncnc(N4CCOCC4)c23)c1` here?
A: 100%
